Read-outs that look alike come from different tables or passages of the source.
Target: T1, human SARM1(50-724) (Homo sapiens, UniProt Q6SZW1)
T1 construct: 40 nM human SARM1(50-724)
T1 sequence (Q6SZW1 50-724): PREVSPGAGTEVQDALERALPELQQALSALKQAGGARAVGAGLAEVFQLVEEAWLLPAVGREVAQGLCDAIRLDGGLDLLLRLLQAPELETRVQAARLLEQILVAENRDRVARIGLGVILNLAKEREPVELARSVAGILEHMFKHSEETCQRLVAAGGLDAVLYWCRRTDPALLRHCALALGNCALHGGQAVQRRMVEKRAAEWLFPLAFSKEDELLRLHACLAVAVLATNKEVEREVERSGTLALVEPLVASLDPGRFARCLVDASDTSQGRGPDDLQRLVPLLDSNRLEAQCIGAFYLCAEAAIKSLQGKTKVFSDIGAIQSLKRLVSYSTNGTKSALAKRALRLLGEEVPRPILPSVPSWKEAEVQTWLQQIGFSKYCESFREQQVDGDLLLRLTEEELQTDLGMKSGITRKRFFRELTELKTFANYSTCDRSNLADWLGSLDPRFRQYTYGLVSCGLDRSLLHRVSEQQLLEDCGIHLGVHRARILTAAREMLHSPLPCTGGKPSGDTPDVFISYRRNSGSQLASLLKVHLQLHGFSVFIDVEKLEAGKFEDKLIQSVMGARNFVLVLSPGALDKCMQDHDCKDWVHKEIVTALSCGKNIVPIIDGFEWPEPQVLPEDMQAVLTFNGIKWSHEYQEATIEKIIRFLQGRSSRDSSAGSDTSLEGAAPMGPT
Assay: SARM1 NADase biochemical assay (HPLC peak areas of NAD and NAM)
Settings: for IC50: dose-response, 1:3 serial dilution from 100 μM, 40 nM SARM1, 0.3 mM NMN, 20 μM NAD, 60 min rt

[1] = 50 μM compound, NAD peak area, read-out: Avg NAD % inhibition at 50 μM
[2] = 50 μM compound, NAM peak area, read-out: Avg NAM % inhibition at 50 μM

| Compound | inhibition at 50 µM [1] [%] | inhibition at 50 µM [2] [%] | IC50 [µM] | further results |
| --- | --- | --- | --- | --- |
| CNc1ccn(Cc2ccncc2)n1 [Example 86, N-Methyl-1-(pyridin-4-ylmethyl)-1H-pyrazol-3-amine] | 0 to 50 | 0 to 50 | – | – |
| c1cc(Cn2ccc(Nc3nccs3)n2)ccn1 [Example 4, N-(1-(Pyridin-4-ylmethyl)-1H-pyrazol-3-yl)thiazol-2-amine] | – | – | 1 to 10 | – |
| CC(c1ccncc1)n1ccc(N(C)c2nccs2)n1 (racemic) [Example 91, (rac)-N-Methyl-N-(1-(1-(pyridin-4-yl)ethyl)-1H-pyrazol-3-yl)thiazol-2-amine] | – | – | – | inhibition at 50 µM (read-out: Avg NAD % inhibition at 50 μM): 0 to 50%; inhibition at 50 µM (read-out: Avg NAM % inhibition at 50 μM): 0 to 50% |
| CC(c1ccn(CC(F)(F)F)n1)c1ccncc1Cl (racemic) [Example 112, (rac)-3-Chloro-4-(1-(1-(2,2,2-trifluoroethyl)-1H-pyrazol-3-yl)ethyl)pyridine] | – | – | 1 to 10 | – |
| O=C(Nc1ccn(Cc2ccncc2)n1)c1cc(Br)cs1 [Example 65, 4-Bromo-N-(1-(pyridin-4-ylmethyl)-1H-pyrazol-3-yl)thiophene-2-carboxamide] | 51 to 100 | 51 to 100 | 10 to 100 | – |
| O=C(CCc1ccccc1)Nc1ccn(Cc2ccncc2)n1 [Example 34, 3-Phenyl-N-(1-(pyridin-4-ylmethyl)-1H-pyrazol-3-yl)propanamide] | 0 to 50 | 0 to 50 | – | – |
| Cc1cnccc1Cn1ccc(CC(F)(F)F)n1 [Example 109, 3-Methyl-4-{[3-(2,2,2-trifluoroethyl)-1H-pyrazol-1-yl]methyl}pyridine] | – | – | 1 to 10 | – |
| FC(F)Cn1ccc(Cc2ccncc2)n1 [Example 10, 4-((1-(2,2-Difluoroethyl)-1H-pyrazol-3-yl)methyl)pyridine] | – | – | 1 to 10 | – |
| (S)-4-(1-(1-(2,2,2-Trifluoroethyl)-1H-pyrazol-3-yl)ethyl)pyridine and (R)-4-(1-(1-(2,2,2-Trifluoroethyl)-1H-pyrazol-3-yl)ethyl)pyridine [Example 13b] | – | – | – | Avg NAD % inhibition at 50 μM (50 μM compound, NAD peak area): ** (51-100%); Avg NAM % inhibition at 50 μM (50 μM compound, NAM peak area): ** (51-100%) |
| CC(c1ccncc1)n1ccc(NCC#N)n1 (racemic) [Example 5, (rac)-2-((1-(1-(Pyridin-4-yl)ethyl)-1H-pyrazol-3-yl)amino)acetonitrile] | – | – | 1 to 10 | – |
| FC(F)(F)Cn1ccc(Cc2ccncc2)n1 [Example 20, 4-((1-(2,2,2-Trifluoroethyl)-1H-pyrazol-3-yl)methyl)pyridine] | – | – | 1 to 10 | – |
| CC(c1ccncc1)n1ccc(C=O)n1 (racemic) [Example 108, (rac)-1-[1-(Pyridin-4-yl)ethyl]-1H-pyrazole-3-carbaldehyde] | 0 to 50 | 0 to 50 | – | – |
| (S)-4-(1-(1-(2,2,2-Trifluoroethyl)-1H-pyrazol-3-yl)ethyl)pyridine and (R)-4-(1-(1-(2,2,2-Trifluoroethyl)-1H-pyrazol-3-yl)ethyl)pyridine [Example 13a] | – | – | < 1 | – |
| O=C(Nc1ccn(Cc2ccncc2)n1)c1ccc(O)cc1 [Example 45, 4-Hydroxy-N-(1-(pyridin-4-ylmethyl)-1H-pyrazol-3-yl)benzamide] | 0 to 50 | 0 to 50 | – | – |
| C[C@H](c1ccncc1)n1ccc(NCC(F)(F)F)n1 [Example 89, (R)-1-(1-(Pyridin-4-yl)ethyl)-N-(2,2,2-trifluoroethyl)-1H-pyrazol-3-amine] | – | – | 10 to 100 | – |
| CC(c1ccncc1)c1ccn(CC(F)F)n1 (racemic) [Example 18, (rac)-4-(1-(1-(2,2-Difluoroethyl)-1H-pyrazol-3-yl)ethyl)pyridine] | – | – | 1 to 10 | – |

Source: patent US11945796B2, “Substituted pyridine derivatives as SARM1 inhibitors” (Nura Bio, Inc., priority 2020, dated 2024)
